Laboratory results reported in ChEMBL document CHEMBL4339212, “Novel 7-formyl-naphthyridyl-ureas derivatives as potential selective FGFR4 inhibitors: Design, synthesis, and biological activity studies” (Bioorg Med Chem, 2019).

Tests used:
[1] = molecular target: T1, Fibroblast growth factor receptor 1 (Homo sapiens, UniProt P11362); experiment: Inhibition of FGFR1 (unknown origin) incubated for 60 mins by caliper microfluidic mobility shift technology based assay
[2] = molecular target: Fibroblast growth factor receptor 4 (Homo sapiens, UniProt P22455); experiment: Inhibition of FGFR4 (unknown origin) incubated for 60 mins by caliper microfluidic mobility shift technology based assay
Sequence of Fibroblast growth factor receptor 4 (P22455 whole entry): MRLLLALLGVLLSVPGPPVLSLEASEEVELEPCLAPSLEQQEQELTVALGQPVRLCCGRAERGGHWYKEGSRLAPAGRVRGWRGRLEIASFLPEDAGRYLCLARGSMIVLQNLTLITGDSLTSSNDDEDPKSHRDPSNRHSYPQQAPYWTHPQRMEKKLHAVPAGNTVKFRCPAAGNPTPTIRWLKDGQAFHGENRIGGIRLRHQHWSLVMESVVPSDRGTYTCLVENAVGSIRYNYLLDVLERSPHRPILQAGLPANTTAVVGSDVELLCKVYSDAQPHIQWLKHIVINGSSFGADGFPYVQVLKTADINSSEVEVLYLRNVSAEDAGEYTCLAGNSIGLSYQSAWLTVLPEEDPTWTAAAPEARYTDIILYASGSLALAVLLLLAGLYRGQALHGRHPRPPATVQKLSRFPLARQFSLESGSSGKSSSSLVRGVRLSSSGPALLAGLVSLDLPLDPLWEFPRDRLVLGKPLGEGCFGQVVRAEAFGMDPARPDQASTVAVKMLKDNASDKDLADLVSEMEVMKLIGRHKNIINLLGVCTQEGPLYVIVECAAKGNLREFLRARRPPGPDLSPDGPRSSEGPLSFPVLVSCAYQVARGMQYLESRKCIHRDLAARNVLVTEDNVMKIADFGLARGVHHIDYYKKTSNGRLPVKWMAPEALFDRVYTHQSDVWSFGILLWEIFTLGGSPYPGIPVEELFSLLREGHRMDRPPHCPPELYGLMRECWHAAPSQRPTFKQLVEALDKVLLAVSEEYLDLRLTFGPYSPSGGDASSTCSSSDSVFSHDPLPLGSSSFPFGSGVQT

Ephrin type-A receptor 1 = Ephrin type-A receptor 1 (Homo sapiens, UniProt P21709); experiment: Inhibition of EphA1 (unknown origin)
[3] = molecular target: Receptor tyrosine-protein kinase erbB-2 (Homo sapiens, UniProt P04626); experiment: Inhibition of HER2 (unknown origin)
[4] = molecular target: Tyrosine-protein kinase SYK (Homo sapiens, UniProt P43405); experiment: Inhibition of SYK (unknown origin)
[5] = molecular target: High affinity nerve growth factor receptor (Homo sapiens, UniProt P04629); experiment: Inhibition of TRKA (unknown origin)
Sequence of High affinity nerve growth factor receptor (P04629 whole entry): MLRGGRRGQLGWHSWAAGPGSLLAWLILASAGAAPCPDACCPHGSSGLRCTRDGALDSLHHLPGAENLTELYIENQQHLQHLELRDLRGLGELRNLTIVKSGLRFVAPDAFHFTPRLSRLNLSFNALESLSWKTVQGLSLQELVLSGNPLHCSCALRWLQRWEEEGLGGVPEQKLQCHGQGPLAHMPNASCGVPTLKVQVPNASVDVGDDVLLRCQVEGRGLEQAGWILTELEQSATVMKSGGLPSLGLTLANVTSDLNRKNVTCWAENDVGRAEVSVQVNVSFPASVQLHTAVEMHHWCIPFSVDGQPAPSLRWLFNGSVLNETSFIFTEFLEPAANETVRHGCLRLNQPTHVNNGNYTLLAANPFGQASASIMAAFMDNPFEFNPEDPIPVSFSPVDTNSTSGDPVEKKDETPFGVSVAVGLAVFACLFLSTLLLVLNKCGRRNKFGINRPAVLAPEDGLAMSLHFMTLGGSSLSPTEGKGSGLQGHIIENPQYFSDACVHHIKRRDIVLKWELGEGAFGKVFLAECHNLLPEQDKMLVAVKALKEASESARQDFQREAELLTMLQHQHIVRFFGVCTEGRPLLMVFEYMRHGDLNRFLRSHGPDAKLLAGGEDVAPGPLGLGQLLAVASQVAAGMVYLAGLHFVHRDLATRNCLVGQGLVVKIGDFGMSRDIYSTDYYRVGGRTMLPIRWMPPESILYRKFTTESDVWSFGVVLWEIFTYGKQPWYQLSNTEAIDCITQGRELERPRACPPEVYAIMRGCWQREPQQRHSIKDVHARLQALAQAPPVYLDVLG

[6] = molecular target: Tyrosine-protein kinase receptor UFO (Homo sapiens, UniProt P30530); experiment: Inhibition of AXL (unknown origin)
Sequence of Tyrosine-protein kinase receptor UFO (P30530 whole entry): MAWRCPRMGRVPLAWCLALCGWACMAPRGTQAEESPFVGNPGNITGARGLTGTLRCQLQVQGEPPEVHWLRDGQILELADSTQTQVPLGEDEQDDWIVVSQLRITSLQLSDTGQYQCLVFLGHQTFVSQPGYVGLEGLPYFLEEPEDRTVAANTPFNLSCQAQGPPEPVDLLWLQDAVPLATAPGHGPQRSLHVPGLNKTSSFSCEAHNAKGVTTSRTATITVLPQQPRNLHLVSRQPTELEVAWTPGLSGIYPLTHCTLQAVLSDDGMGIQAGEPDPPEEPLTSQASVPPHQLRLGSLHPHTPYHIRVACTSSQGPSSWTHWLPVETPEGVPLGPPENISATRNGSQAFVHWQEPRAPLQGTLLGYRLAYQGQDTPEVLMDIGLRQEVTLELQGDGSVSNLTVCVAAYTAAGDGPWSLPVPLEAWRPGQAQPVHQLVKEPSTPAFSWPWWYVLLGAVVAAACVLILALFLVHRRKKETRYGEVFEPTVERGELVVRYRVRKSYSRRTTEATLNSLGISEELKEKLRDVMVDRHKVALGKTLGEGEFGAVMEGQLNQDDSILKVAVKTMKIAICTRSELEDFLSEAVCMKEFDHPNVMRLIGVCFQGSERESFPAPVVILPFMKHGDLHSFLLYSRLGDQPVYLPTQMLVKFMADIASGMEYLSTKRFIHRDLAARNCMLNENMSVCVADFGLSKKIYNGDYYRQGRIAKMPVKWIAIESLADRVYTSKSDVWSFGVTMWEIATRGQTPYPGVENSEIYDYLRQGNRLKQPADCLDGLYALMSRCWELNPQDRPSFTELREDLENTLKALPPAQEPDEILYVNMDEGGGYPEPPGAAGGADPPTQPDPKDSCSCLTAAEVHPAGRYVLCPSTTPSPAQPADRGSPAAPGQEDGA

[7] = molecular target: Mast/stem cell growth factor receptor Kit (Homo sapiens, UniProt P10721); experiment: Inhibition of C-KIT (unknown origin)
[8] = molecular target: Vascular endothelial growth factor receptor 3 (Homo sapiens, UniProt P35916); experiment: Inhibition of FLT4 (unknown origin)
Sequence of Vascular endothelial growth factor receptor 3 (P35916 whole entry): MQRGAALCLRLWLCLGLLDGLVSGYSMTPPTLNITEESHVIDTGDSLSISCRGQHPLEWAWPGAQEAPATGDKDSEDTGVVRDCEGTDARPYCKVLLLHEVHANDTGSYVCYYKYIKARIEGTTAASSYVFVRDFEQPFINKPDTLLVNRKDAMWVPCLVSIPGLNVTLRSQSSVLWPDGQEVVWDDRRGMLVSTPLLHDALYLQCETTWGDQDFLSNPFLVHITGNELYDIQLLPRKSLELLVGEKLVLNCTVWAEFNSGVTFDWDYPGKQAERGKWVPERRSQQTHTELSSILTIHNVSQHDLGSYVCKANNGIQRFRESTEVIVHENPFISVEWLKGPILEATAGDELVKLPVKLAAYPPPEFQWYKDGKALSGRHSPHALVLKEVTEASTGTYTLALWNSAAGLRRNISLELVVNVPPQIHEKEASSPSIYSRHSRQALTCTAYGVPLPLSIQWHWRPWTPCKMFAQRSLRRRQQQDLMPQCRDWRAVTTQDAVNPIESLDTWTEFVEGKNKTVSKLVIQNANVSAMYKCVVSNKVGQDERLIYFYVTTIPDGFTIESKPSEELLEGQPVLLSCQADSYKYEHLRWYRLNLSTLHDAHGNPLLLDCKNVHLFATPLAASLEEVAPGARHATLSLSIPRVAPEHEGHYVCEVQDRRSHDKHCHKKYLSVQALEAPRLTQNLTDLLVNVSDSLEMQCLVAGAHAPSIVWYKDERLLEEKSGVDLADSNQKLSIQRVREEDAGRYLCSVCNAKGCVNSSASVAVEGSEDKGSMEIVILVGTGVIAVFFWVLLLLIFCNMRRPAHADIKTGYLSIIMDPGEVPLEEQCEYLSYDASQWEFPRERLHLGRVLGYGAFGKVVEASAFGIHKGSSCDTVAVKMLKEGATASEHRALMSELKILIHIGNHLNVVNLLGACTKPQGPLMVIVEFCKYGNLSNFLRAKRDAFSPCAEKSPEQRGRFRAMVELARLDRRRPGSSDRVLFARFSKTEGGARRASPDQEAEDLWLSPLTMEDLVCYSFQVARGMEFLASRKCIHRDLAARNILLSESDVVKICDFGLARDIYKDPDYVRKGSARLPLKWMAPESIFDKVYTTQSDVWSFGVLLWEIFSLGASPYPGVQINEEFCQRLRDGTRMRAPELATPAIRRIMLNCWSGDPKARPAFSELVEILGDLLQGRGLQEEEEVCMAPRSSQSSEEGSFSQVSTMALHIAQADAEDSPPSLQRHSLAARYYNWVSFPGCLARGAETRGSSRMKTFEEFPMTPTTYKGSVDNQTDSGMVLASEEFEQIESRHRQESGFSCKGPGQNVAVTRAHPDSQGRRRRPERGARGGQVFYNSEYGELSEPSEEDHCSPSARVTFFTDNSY

[9] = molecular target: MAP kinase-activated protein kinase 2 (Homo sapiens, UniProt P49137); experiment: Inhibition of MAPKAPK2 (unknown origin)
Sequence of MAP kinase-activated protein kinase 2 (P49137 whole entry): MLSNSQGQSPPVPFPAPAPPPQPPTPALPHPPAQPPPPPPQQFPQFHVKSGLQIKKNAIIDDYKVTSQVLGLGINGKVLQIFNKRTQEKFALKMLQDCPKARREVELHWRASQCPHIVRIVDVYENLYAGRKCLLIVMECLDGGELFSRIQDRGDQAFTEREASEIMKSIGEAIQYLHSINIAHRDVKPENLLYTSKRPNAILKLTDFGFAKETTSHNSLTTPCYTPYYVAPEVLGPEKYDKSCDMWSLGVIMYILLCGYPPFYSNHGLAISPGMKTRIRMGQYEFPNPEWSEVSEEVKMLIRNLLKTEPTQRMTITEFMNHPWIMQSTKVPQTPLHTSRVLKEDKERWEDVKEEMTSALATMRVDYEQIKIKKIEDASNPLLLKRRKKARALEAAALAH

[10] = molecular target: T1, Fibroblast growth factor receptor 1; experiment: Inhibition of FGFR1 (unknown origin)
[11] = molecular target: Fibroblast growth factor receptor 3 (Homo sapiens, UniProt P22607); experiment: Inhibition of FGFR3 (unknown origin)
[12] = Toxicity in male BALB/c mouse at 50 to 450 mg/kg/day, ig dosed once daily for 4 weeks followed by rehabilitation for another 28 days; format: organism-based; details: in vivo, po
[13] = Toxicity in female BALB/c mouse at 50 to 450 mg/kg/day, ig dosed once daily for 4 weeks followed by rehabilitation for another 28 days; format: organism-based; details: in vivo, po

T1 sequence (P11362 whole entry): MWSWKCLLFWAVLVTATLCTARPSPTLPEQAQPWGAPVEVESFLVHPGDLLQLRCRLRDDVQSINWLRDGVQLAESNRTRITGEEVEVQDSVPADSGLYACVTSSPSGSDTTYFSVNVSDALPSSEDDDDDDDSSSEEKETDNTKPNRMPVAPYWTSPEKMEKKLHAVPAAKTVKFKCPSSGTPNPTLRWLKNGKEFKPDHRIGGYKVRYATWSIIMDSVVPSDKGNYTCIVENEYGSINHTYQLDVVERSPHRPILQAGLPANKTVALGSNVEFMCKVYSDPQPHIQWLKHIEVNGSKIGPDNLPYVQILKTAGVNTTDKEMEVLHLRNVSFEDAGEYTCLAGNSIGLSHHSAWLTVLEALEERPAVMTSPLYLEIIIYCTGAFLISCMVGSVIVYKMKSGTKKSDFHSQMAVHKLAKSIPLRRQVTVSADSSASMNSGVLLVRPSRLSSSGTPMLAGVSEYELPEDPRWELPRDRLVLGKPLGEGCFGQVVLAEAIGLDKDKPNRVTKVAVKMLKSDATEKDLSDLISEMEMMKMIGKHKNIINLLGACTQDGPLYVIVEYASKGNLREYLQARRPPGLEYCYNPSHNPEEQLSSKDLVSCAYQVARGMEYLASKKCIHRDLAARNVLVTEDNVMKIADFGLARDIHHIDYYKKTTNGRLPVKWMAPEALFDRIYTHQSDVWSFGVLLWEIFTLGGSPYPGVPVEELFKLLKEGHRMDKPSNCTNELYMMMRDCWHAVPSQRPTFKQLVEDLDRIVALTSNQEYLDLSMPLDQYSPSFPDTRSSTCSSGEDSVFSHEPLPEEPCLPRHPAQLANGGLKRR

Work on `COC[C@@H](C)Nc1cc(NC(=O)N2CCCc3cc(CN4CCCCOC4=O)c(C=O)nc32)ncc1C#N` yielded an IC50 [1] of over 10 µM, an IC50 [2] of 0.0015 µM and an IC50 (Ephrin type-A receptor 1) of over 10 µM. For the same molecule, the IC50 [3] was over 10 µM, the IC50 [4] was over 10 µM and the IC50 [5] was over 10 µM. For the same molecule, the IC50 [6] was over 10 µM, the IC50 [7] was over 10 µM and the IC50 [8] was over 10 µM. For the same molecule, the IC50 [9] was over 10 µM, the IC50 [10] was over 10 µM and the IC50 [11] was over 10 µM. It also gave an NOAEL at 672 h [12] of 450 mg/kg and an NOAEL at 672 h [13] of 150 mg/kg.
